Test results published in publication PMC7586386, “Discovery of Covalent Inhibitors Targeting the Transcriptional Enhanced Associate Domain Central Pocket” (Journal of Medicinal Chemistry, 2020).
Read-outs that look alike come from different tables or passages of the source.

How the values were obtained:
mTEAD4 (nonacylated) = target: T1, mTEAD4 (nonacylated) (Mus musculus, UniProt Q62296); assay: 1H–15N HSQC NMR; type: binding; details: 0.5 mM compound, versus DMSO
T1 construct: made in house
Method: The ^13C/^15N-labeled mTEAD4 was prepared following a protocol established earlier,[45] and the protein was deacylated as described above for hTEAD4. ^1H–^15N HSQC spectra in the presence of DMSO or the test compound (0.5 mM) were collected at 37 °C on a Bruker 600 MHz magnet equipped with a cryoprobe in 20 mM HEPES, pH 7.3 buffer containing 150 mM NaCl and 1 mM DTT. The spectra were processed and overlaid.

hTEAD4 = target: T2, hTEAD4 (Homo sapiens, UniProt Q15561); assay: Cellular thermal shift assay (CETSA) in HCT116 cell lysates; type: cell-based; details: 50 μM, 10 min, DMSO 49.8
T2 construct: Target engagement in HCT116 cell lysates was proven by means of a cellular thermal shift assay; endogenous in cells; host or cells: HCT116 cell lysate
Method: HCT116 cells were grown in Dulbecco’s modified Eagle’s medium (Sigma-Aldrich, #P04-03550) containing 10% fetal bovine serum, 1× NEAA (Sigma-Aldrich, # P08-32800) and 1 mM sodium pyruvate (Sigma-Aldrich, #S8636) until they reached 90% confluency. Cells were detached, transferred to two separate tubes, and washed three times with PBS. Then, 0.6 mL of PBS containing 0.04% NP-40 was added to each tube and cells were lysed by means of freeze and thaw. Lysates were centrifuged (Beckman Optima MAX-TL) at 100,000g, 4 °C for 25 min and protein concentration was determined using the DC Protein Assay Kit I (Bio-Rad, #5000111). Aliquots (1.5 mL) containing 1 mg/mL protein were stored at −80 °C until further usage.
Compound 19 (2.75 μL 10 mM stock, 50 μM) or DMSO (2.75 μL) was added to 550 μL of HCT116 lysates (1 mg/mL), samples were mixed and incubated for 10 min at room temperature. Treated and nontreated lysates were divided into ten aliquots, each 50 μL in PCR tubes. The aliquots were individually heated at different temperatures (Eppendorf Mastercycler ep Gradient S). […] To 16 μL of each supernatant was added 4 μL of 5× loading buffer and incubated for 5 min at 95 °C, before samples were analyzed by immunoblotting. […]
Images were analyzed with ImageJ (FUJI). […]

hTEAD1–4 = assay: Thiol conjugation assay, TEAD homologues (range over all four); type: binding, human
Method: To serially diluted solutions of the tested compounds in 5 μL of assay buffer [HEPES (25 mM) and NaCl (150 mM) pH 6.5], freshly prepared 5 μL of 0.45 μM protein solution was added and incubated at room temperature for 10 min, followed by addition of 5 μL of 0.45 μM CPM solution, giving a 15 μL final assay volume, 150 nM protein, and 150 nM CPM. The assay plate was shaken at room temperature for 1 h before measuring the fluorescence (Ex/Em: 380/470 nm). Compound 19 was used as an internal standard to determine 100% inhibition.

[1] = target: T3, mTEAD4 Cys360Ser with YAP (Mus musculus, UniProt Q62296, C360S); assay: FP-based competitive TEAD–YAP interaction assay (FITC-hYAP50–100); type: binding
T3 construct: His (N); made in house
Method: (§1) All the TEAD–YAP binding experiments were performed in phosphate-buffered saline (PBS) (pH 7.5).
(§2) To serially diluted solution of the tested compounds in 5 μL of PBS, freshly prepared 5 μL of protein solution was added and incubated at room temperature for 10 min followed by addition of 5 μL of FAM-YAP^50–100 solution. The assay plate was shaken at room temperature for 1 h before measuring the FP (Ex/Em: 485/535 nm). Final protein and FAM concentrations are as follows (FAM/protein): hTEAD4 (nonacylated): 2 nM/5 nM, hTEAD4 (acylated): 3 nM/15 nM, mTEAD4_Cys360Ser: 10 nM/50 nM, and mTEAD4_Cys360Ala: 10 nM/50 nM.

[2] = target: T4, mTEAD4 Cys360Ala with YAP (Mus musculus, UniProt Q62296, C360A); assay: as above; type: binding
T4 construct: N-terminal His6- and MBP-tagged mTEAD4^209–427 with Cys360Ala mutation; made in house; host or cells: E. coli BL21-CodonPlus (DE3)-RIPL
Method: as §1, §2

[3] = target: T5, hTEAD4 (acylated) with YAP (Homo sapiens, UniProt Q15561); assay: as above; type: binding
T5 construct: N-terminal His6-tagged hTEAD4^217–434 was subcloned; made in house; host or cells: Escherichia coli BL21-CodonPlus (DE3)-RIPL
Method: as §1, §2

hTEAD4 (nonacylated) = target: T6, hTEAD4 (nonacylated) (Homo sapiens, UniProt Q15561); assay: Time-dependent inhibition, FP (central pocket binding) assay
T6 construct: N-terminal His6-tagged hTEAD4^217–434 was subcloned; made in house; host or cells: Escherichia coli BL21-CodonPlus (DE3)-RIPL
Method: To serially diluted solution of the tested compounds in 5 μL assay buffer [HEPES (25 mM) and NaCl (150 mM), pH 6.5 buffer], freshly prepared 5 μL of 0.15 μM protein solution was added and incubated at room temperature for 10 min followed by 5 μL of 30 nM FITC-palmitate solution, giving 15 μL final assay volume, 50 nM protein, and 10 nM tracer. The assay plate was shaken at room temperature for 1 h before measuring the FP (Ex/Em: 485/535 nm).
TDI of hTEAD4 (nonacylated) by compound 19 was monitored in FP (central pocket binding) and thiol conjugation assays at 5–7 different concentrations (0.15–40 μM) following 1, 2, 4, and 24 h incubation at 4 °C (mean ± SD; n = 2). By fitting the percent of inhibition versus preincubation time at different concentrations, kobs was calculated. Next, kobs was plotted against concentration and was further fitted to a nonlinear regression model to determine the kinetic parameters of covalent inhibition of hTEAD4, where plateau is showing kinact (min^–1) and t1/2 is Ki (μM).

T6 sequence (Q15561 217-434): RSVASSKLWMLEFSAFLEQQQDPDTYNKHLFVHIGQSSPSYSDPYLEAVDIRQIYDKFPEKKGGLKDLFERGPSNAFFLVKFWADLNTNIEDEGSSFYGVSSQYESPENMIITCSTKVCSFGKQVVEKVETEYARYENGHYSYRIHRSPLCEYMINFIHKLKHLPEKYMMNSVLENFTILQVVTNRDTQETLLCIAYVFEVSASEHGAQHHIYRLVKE
T4 sequence (Q62296 209-427 C360A): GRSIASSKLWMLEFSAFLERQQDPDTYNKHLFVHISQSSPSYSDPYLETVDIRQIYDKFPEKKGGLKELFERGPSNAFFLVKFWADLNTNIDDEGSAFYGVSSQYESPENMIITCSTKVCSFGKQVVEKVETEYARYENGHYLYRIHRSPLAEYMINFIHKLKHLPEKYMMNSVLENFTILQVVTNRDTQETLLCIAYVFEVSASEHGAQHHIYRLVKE
T5 sequence (Q15561 217-434): as the sequence (Q15561 217-434) above
T1 sequence (Q62296 210-427 limits assumed): as the sequence (Q15561 217-434) above, with V3I, Q19R, G35S, A48T, D67E, E91D, S96A, S142L counted along it
T3 sequence (Q62296 210-427 C360S limits assumed): as the sequence (Q15561 217-434) above, with V3I, Q19R, G35S, A48T, D67E, E91D, S96A, S142L, C151S counted along it
T2 sequence (Q15561 whole entry): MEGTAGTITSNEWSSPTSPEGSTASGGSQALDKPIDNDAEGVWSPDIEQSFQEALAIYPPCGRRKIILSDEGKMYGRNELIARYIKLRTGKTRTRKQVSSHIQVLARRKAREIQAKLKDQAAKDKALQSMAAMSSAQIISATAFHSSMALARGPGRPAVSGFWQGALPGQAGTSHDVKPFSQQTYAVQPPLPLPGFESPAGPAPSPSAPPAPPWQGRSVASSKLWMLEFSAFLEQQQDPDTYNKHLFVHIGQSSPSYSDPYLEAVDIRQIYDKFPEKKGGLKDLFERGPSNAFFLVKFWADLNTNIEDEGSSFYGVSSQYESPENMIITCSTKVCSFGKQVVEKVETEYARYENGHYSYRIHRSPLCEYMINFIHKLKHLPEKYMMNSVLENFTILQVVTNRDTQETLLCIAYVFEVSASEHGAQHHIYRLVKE

- melting temperature of hTEAD4 (CETSA) (hTEAD4): 53.1 °C
- IC50 (hTEAD1–4): 2.6 to 6.9 µM
- inhibition of the interaction of YAP with TEAD [1]: did not inhibit
- inhibition of the interaction of YAP with TEAD [2]: did not inhibit
- inhibition of the interaction of YAP with TEAD [3]: did not inhibit
- kinact/KI (hTEAD4 (nonacylated); FP assay): 66.7 M⁻¹ s⁻¹
- kinact (hTEAD4 (nonacylated); FP, read-out: kinact (converted)): 0.0015 s⁻¹
- kinact (hTEAD4 (nonacylated); supplementary CSV, read-out: Kinact Fluorescence Polarization (converted)): 0.00015 s⁻¹
Structure (SMILES): O=c1cc(CO)oc(C(Nc2ccccc2)c2ccccc2)c1O (stereo not drawn) [Compound 19, 3-Hydroxy-6-(hydroxymethyl)-2-(phenyl(phenylamino)methyl)-4H-pyran-4-one]
- effect on 1H–15N HSQC spectrum (mTEAD4 (nonacylated)): induced line broadening of several residues
